According to US11058713B2, “Treatment and diagnosis of ocular surface disorders” (Advaite LLC., priority 2017, dated 2021):
“Also recorded” adds a separate entry of the source.

What was measured:
[1] = tested on: stimulated neutrophils; test: Stimulated neutrophils: inflammatory products (green staining strands), photographs; format: cell-based
[2] = tested on: neutrophil inflammatory products; test: Kinetic assay of neutrophil inflammatory products, stimulation by 1 nM PMA; format: cell-based; details: FIGS. 9A and 9B
[3] = tested on: human corneal epithelial cells; test: Scratch wound healing of confluent corneal epithelial cells; format: cell-based; details: anticoagulant dose heparin 1000 and 10,000 IU/ml; versus RPMI control and 100 IU/ml
Description: In this experiment human corneal epithelial cells were grown to confluence and scratch wounds were made.

[4] = tested on: human corneal epithelial cells; test: Cytotoxicity assay (LDH); format: cell-based
[5] = tested on: murine corneas; test: Murine model of neutrophil product (NETs) induced corneal disease; format: in vivo
Description: Neutrophil products (NETs) when applied to corneal surface induced epithelial disease and fluorescein staining. […] Protein levels of inflammatory cytokines were also determined (IL-lb and IP-10) using a Magpix platform.
Whether reducing OSM levels in naive NETs using heparin or OSM NAb abrogates NETs induced epitheliopathy in murine corneas was investigated. Naive NETs, heparinized NETs and OSM NAb incubated NETs was applied to naïve murine corneas for five consecutive days. […] At Day 5, corneas were excised and abundance of inflammatory cytokines (IL-1β, IL-6 and IP-10) were determined in lysates. […] FIG. 16.

[6] = tested on: mouse corneas; test: Recombinant OSM protein induced corneal epithelial disease; format: in vivo; details: for corneal fluorescein staining at Day 5: application of OSM, OSM incubated with heparin or OSM incubated with OSM NAb
Excerpt: Excessive amounts of OSM can cause corneal epithelial disease similar to that seen in DED patients. […] OSM inhibitors used can be selected from neutralizing antibodies, neutralizing peptides and small molecules and other gene based approaches. These OSM inhibitors can be used independently as therapeutic proteins/peptides/small molecules for DED treatment.
In addition, whether OSM recombinant protein can produce epitheliopathy similar to NETs and whether reducing OSM levels using heparin or OSM NAb abrogates that effect was also investigated. […] These experiments indicate that NETs cause corneal epitheliopathy possibly due to presence of OSM and epitheliopathy can be prevented with heparin. To test this theory, a patient with oGVHD who had corneal and conjunctival epitheliopathy was treated with heparin eye drop (100 IU/mL) three times a day for four weeks.

[7] = tested on: mucocellular aggregates from a patient with severe tear deficient DED; test: Ex vivo dissolution of mucocellular aggregates (Hematoxylin-Eosin and Sytox Green); parameters: species or system human; details: sub-anticoagulant heparin 100 IU/ml; substantially intact with culture media (RPMI) only
Description: The extracellular structures (green strands) were dissolved when treated with sub-anticoagulant heparin (100 IU/ml), but remained substantially intact when treated with only the culture media (RPMI).

[8] = tested on: oncostatin M (OSM); test: Recombinant OSM protein levels after incubation with heparin or NAb; format: binding; details: FIG. 15
Description: (§1) The molecular component of Neutrophil Extracellular Traps (NETs) that may cause epitheliopathy was investigated. […] OSM was present in abundance in mucocellular aggregates (MCA) collected from definite oGVHD patients. OSM is a heparin binding protein, therefore incubation with heparin or Neutralizing antibody (NAb) reduced recombinant OSM protein levels (FIG. 15).

[9] = target: T1, oncostatin M (OSM) (Mus musculus, UniProt P53347); test: OSM levels in murine NETs; format: binding; details: 614.67±95.73 pg/mL without heparin
T1 construct: In murine NETs, OSM is present in great abundance; endogenous in cells; host or cells: murine neutrophil extracellular traps (NETs)
T1 sequence (P53347 23-206): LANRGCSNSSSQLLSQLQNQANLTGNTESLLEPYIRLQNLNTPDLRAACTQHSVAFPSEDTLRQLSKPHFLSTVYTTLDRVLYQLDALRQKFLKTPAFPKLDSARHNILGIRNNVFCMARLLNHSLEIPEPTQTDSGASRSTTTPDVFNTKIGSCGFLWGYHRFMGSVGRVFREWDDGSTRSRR
Description: as §1

[10] = tested on: immortalized meibomian gland epithelial cells; test: Meibomian gland cell differentiation, lipid accumulation by LipidTOX staining; format: cell-based, human
Excerpt: Meibomian gland disease is a conspicuous feature of oGVHD. As compared to normal meibomian gland, patients with oGVHD have extensive atrophy or truncation of meibomian glands. […] To determine the effect of NETs on meibomian glands, immortalized meibomian gland epithelial cells were cultivated and differentiated. Lipid accumulation was detected using LipidTOX staining. […] The reduction in lipid accumulation with NETs was abrogated with addition of NGAL NAb (21.21±0.83 A.U). […] The reduction of lipid accumulation with rNGAL was abrogated with addition of NGAL NAb (17.82±0.43 A.U) and heparin (15.66±1.72 A.U).

[11] = tested on: human MG cells; test: Meibomian gland cell proliferation; format: cell-based; details: KSFM medium with rNGAL; reduction with rNGAL on addition of NGAL NAb or heparin
Excerpt: Next, the effect of NGAL on proliferation of human MG cells was investigated. […] FIG. 20. […] The reduction of MG cell proliferation with rNGAL was abrogated with addition of NGAL NAb and heparin.

[12] = Heparin addition to NETs, protein level, Magpix platform
[13] = DFM medium with rNGAL, rNGAL plus NGAL NAb or rNGAL plus heparin, DFM alone 24.92±1.21

Molecule: Enoxaparin
- neutrophil inflammatory products (green staining strands) ([1]; Enoxaparin 10, 20, 40 and 80 μg/mL, FIG. 6): dose dependent fashion
- inflammatory strands of neutrophils ([1]; Enoxaparin at 80 μg/mL): almost completely
- amount of neutrophil inflammatory products produced with stimulation by 1 nM PMA [2]: dose dependent reduction; also recorded: dose dependent manner

Molecule: heparin
- neutrophil inflammatory products (green staining strands) ([1]; heparin 0.01, 0.1, 1, 10 and 100 IU/mL, FIG. 5): dose dependent fashion
- amount of inflammatory strands of neutrophils ([1]; heparin at 100 IU/ml): almost completely
- amount of neutrophil inflammatory products produced with stimulation by 1 nM PMA [2]: dose dependent reduction; also recorded: dose dependent manner
- Epithelial cell healing (scratch wounds) [3]: significantly delayed
- LDH ([4]; anticoagulant dose heparin 1000 and 10,000 IU/ml, versus RPMI control and 100 IU/ml): significantly higher
- human corneal epithelial cell cytotoxicity ([4]; anticoagulant dose of heparin (1000 and 10,000 IU/ml)): causes human corneal epithelial cell cytotoxicity
- human corneal epithelial cell cytotoxicity ([4]; sub-anticoagulant dose of heparin (100 IU/ml)): does not cause cytotoxicity
- epithelial disease and fluorescein staining ([5]; Heparin (100 IU/ml) added to NETs applied to corneal surface): significantly reduced
- corneal abundance of IL-lb [5, 12]: significantly reduced
- corneal abundance of IP-10 [5, 12]: significantly reduced
- corneal fluorescein staining at Day 5 ([5]; naive NETs, heparinized NETs or OSM NAb incubated NETs applied to naïve murine corneas for five consecutive days): 0.80±0.49
- corneal fluorescein staining at Day 5 [6]: 1.20±0.20
- corneal fluorescein staining induced by OSM ([6]; heparin 100 IU/ml or neutralizing antibody added to recombinant OSM, FIG. 13): significantly reduced
- extracellular structures (green strands) of mucocellular aggregates [7]: dissolved
- recombinant OSM protein levels [8]: reduced
- OSM levels in heparinized NETs [9]: 19.95 ± 0.00 pg/mL
- fluorescence intensity of LipidTox Green neutral lipid stain (accumulation of lipids) ([10]; DFM medium with NETs, heparinized NETs or NETs plus NGAL NAb, DFM alone 24.92±1.21, KSFM 6.93±0.57): 33.98±2.18 A.U
- fluorescence intensity of LipidTox Green neutral lipid stain (accumulation of lipids) [10, 13]: 15.66±1.72 A.U
- MG cell proliferation [11]: abrogated

B1: OSM: OSM recombinant protein applied to mouse corneas (protein, UniProt P53347 25-206, looked up)
Oncostatin-M: NRGCSNSSSQLLSQLQNQANLTGNTESLLEPYIRLQNLNTPDLRAACTQHSVAFPSEDTLRQLSKPHFLSTVYTTLDRVLYQLDALRQKFLKTPAFPKLDSARHNILGIRNNVFCMARLLNHSLEIPEPTQTDSGASRSTTTPDVFNTKIGSCGFLWGYHRFMGSVGRVFREWDDGSTRSRR
- corneal fluorescein staining at Day 5 [6]: 8.75±0.48

B2: rNGAL: recombinant NGAL (neutrophil gelatinase-associated lipocalin) (protein, UniProt P80188 21-198, looked up)
Neutrophil …: QDSTSDLIPAPPLSKVPLQQNFQDNQFQGKWYVVGLAGNAILREDKDPQKMYATIYELKEDKSYNVTSVLFRKKKCDYWIRTFVPGCQPGEFTLGNIKSYPGLTSYLVRVVSTNYNQHAMVFFKKVSQNREYFKITLYGRTKELTSELKENFIRFSKSLGLPENHIVFPVPIDQCIDG
- fluorescence intensity of LipidTox Green neutral lipid stain (accumulation of lipids) [10, 13]: 10.88±0.35 A.U
- MG cell proliferation [11]: significantly decreased
